Laboratory results reported in article PMC10719919 (ACS Omega, 2023).

Tests used:
AChE = AChE (Electrophorus electricus, UniProt O42275); test: Enzyme kinetics of AChE inhibition; assay type: biochemical; settings: for Vmax (μmol/min)^−^1: Vmax of AChE, not apparent
AChE EC 3.1.1.7 = AChE EC 3.1.1.7 (Electrophorus electricus, UniProt O42275); test: biochemical
[1] = Cytotoxicity: human neutrophil viability assay; assay type: cell-based; settings: human
rabbit jejunum [2] = test: Spasmolytic activity on spontaneous contraction of isolated rabbit jejunum; settings: spontaneously contracting isolated rabbit jejunum; Mean ± SEM, n = 3
rabbit jejunum [3] = settings: high K+ (80 mM)-contracted isolated rabbit jejunum; Mean ± SEM, n = 3
human neutrophils = test: Cytotoxicity: human neutrophil viability assay; assay type: cell-based; settings: 200 μg/mL

Chain of AChE EC 3.1.1.7 (O42275 24-633): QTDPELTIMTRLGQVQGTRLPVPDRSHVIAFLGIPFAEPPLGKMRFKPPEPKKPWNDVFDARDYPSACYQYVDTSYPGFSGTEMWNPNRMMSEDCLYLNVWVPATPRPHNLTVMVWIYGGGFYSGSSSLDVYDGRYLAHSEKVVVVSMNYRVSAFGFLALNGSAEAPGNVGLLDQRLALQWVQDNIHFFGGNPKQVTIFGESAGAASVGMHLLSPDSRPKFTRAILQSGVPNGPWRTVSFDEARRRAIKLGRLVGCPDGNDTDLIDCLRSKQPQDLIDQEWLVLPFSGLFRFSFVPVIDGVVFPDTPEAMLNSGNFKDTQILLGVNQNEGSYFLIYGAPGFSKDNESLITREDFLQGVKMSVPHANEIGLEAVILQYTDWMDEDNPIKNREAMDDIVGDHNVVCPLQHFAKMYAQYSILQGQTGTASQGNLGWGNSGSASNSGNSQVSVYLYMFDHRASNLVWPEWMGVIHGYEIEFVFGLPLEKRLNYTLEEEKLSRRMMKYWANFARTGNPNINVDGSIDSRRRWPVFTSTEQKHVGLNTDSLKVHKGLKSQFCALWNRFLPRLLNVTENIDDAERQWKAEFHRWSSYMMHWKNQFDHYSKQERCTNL
Chain of AChE (O42275 24-633): as above

SMILES | Ki (AChE) | type of inhibition (AChE) | Vmax (μmol/min)^−^1 (AChE) | IC50 (AChE EC 3.1.1.7) | viability at 30 min, 200 µg/ml [1] | Effective dose (ED50), Spontaneous (rabbit jejunum [2]) | Effective dose (ED50), High K+ (rabbit jejunum [3]) | toxicity in the neutrophil viability assay (in words) (human neutrophils)
CCSc1nc2ccccc2n1Cc1nnc(-c2ccc(F)cc2)o1 [Compound 15, 2-((2-(Ethylthio)-1H-benzo[d]imidazole-1-yl)methyl)-5-(4-fluorophenyl)-1,3,4-oxadiazole] | 53.3 ± 1.4 µM | noncompetitive | 5.0 (μmol/min)^−^1 | 130.5 ± 1.03 µM |  |  |  | 
CCSc1nc2ccccc2n1Cc1nnc(-c2ccc(F)c(OC)c2)o1 [Compound 29, 2-((2-(Ethylthio)-1H-benzo[d]imidazole-1-yl)methyl)-5-(4-fluoro-3-methoxyphenyl)-1,3,4-oxadiazole] | 34.2 ± 0.9 µM | noncompetitive | 5.0 (μmol/min)^−^1 | 84.2 ± 1.99 µM |  |  |  | 
CCSc1nc2ccccc2n1Cc1nnc(-c2ccc([N+](=O)[O-])cc2)o1 [Compound 28, 2-((2-(Ethylthio)-1H-benzo[d]imidazole-1-yl)methyl)-5-(4-nitrophenyl)-1,3,4-oxadiazole] | 289.2 ± 0.8 µM | noncompetitive | 5.0 (μmol/min)^−^1 | 750.9 ± 1.19 µM |  |  |  | 
CCSc1nc2ccccc2n1Cc1nnc(-c2ccc(O)cc2O)o1 [Compound 30, 4-(5-((2-(Ethylthio)-1H-benzo[d]imidazole-1-yl)methyl)-1,3,4-oxadiazol-2-yl)benzene-1,3-diol] | 456.71 ± 0.2 µM | noncompetitive | 5.0 (μmol/min)^−^1 | 1190 ± 0.65 µM |  |  |  | 
CCSc1nc2ccccc2n1Cc1nnc(-c2cccc(O)c2)o1 [Compound 32, 3-(5-((2-(Ethylthio)-1H-benzo[d]imidazole-1-yl)methyl)-1,3,4-oxadiazol-2-yl)phenol] | 148.8 ± 0.2 µM | noncompetitive | 5.0 (μmol/min)^−^1 | 400.7 ± 0.95 µM |  |  |  | 
CCSc1nc2ccccc2n1Cc1nnc(-c2cccc(OC)c2O)o1 [Compound 18, 2-(5-((2-(Ethylthio)-1H-benzo[d]imidazole-1-yl)methyl)-1,3,4-oxadiazol-2-yl)-6-methoxyphenol] | 98.77 ± 0.7 µM | noncompetitive | 5.0 (μmol/min)^−^1 | 248.8 ± 1.02 µM |  |  |  | 
CCSc1nc2ccccc2n1Cc1nnc(-c2ccccc2O)o1 [Compound 31, 2-(5-((2-(Ethylthio)-1H-benzo[d]imidazole-1-yl)methyl)-1,3,4-oxadiazol-2-yl)phenol] | 89.5 ± 1.5 µM | noncompetitive | 5.0 (μmol/min)^−^1 | 248.5 ± 1.81 µM |  |  |  | 
CCSc1nc2ccccc2n1Cc1nnc(-c2ccc(C)o2)o1 [Compound 22, 2-((2-(Ethylthio)-1H-benzo[d]imidazole-1-yl)methyl)-5-(5-methylfuran-2-yl)-1,3,4-oxadiazole] | 32.1 ± 1.4 µM | noncompetitive | 5.0 (μmol/min)^−^1 | 97.94 ± 0.79 µM |  |  |  | 
CCSc1nc2ccccc2n1Cc1nnc(-c2cccc(O)c2O)o1 [Compound 33, 3-(5-((2-(Ethylthio)-1H-benzo[d]imidazole-1-yl)methyl)-1,3,4-oxadiazol-2-yl)benzene-1,2-diol] | 121 ± 0.5 µM | noncompetitive | 5.0 (μmol/min)^−^1 | 320.6 ± 1.12 µM |  |  |  | 
CCSc1nc2ccccc2n1Cc1nnc(-c2ccccc2OC)o1 [Compound 21, 2-((2-(Ethylthio)-1H-benzo[d]imidazole-1-yl)methyl)-5-(2-methoxyphenyl)-1,3,4-oxadiazole] | 112 ± 1.3 µM | noncompetitive | 5.0 (μmol/min)^−^1 | 291.9 ± 1.52 µM |  |  |  | 
CCSc1nc2ccccc2n1Cc1nnc(-c2cc(OC)c(OC)c(OC)c2)o1 [Compound 27, 2-((2-(Ethylthio)-1H-benzo[d]imidazole-1-yl)methyl)-5-(3,4,5-trimethoxyphenyl)-1,3,4-oxadiazole] | 775.02 ± 0.5 µM | noncompetitive | 5.0 (μmol/min)^−^1 | 1580.2 ± 0.76 µM |  |  |  | 
CCSc1nc2ccccc2n1Cc1nnc(-c2ccc(N(CC)CC)cc2)o1 [Compound 35, N,N-Diethyl-4-(5-((2-(ethylthio)-1H-benzo[d]imidazole-1-yl)methyl)-1,3,4-oxadiazol-2-yl)aniline] | 101.3 ± 0.3 µM | noncompetitive | 5.0 (μmol/min)^−^1 | 258.1 ± 1.02 µM |  |  |  | 
CCSc1nc2ccccc2n1Cc1nnc(-c2ccc(OC)c(OC)c2)o1 [Compound 24, 2-(3,4-Dimethoxyphenyl)-5-((2-(ethylthio)-1H-benzo[d]imidazole-1-yl)methyl)-1,3,4-oxadiazole] | 284.2 ± 1.2 µM | noncompetitive | 5.0 (μmol/min)^−^1 | 692 ± 0.99 µM |  |  |  | 
COc1ccc2c3c1O[C@H]1C[C@@H](O)C=C[C@@]31CCN(C)C2 [Galanthamine, reference compound] |  |  |  |  | 96 ± 3.1% |  |  | 
CCSc1nc2ccccc2n1Cc1nnc(-c2ccc(Cl)cc2)o1 [Compound 25, 2-(4-Chlorophenyl)-5-((2-(ethylthio)-1H-benzo[d]imidazole-1-yl)methyl)-1,3,4-oxadiazole] | 83.21 ± 0.6 µM | noncompetitive | 5.0 (μmol/min)^−^1 | 208.3 ± 1.39 µM |  |  |  | 
CCSc1nc2ccccc2n1Cc1nnc(-c2ccco2)o1 [Compound 17, 2-((2-(Ethylthio)-1H-benzo[d]imidazole-1-yl)methyl)-5-(furan-2-yl)-1,3,4-oxadiazole] | 24.3 ± 1.3 µM | noncompetitive | 5.0 (μmol/min)^−^1 | 69.7 ± 0.95 µM | 100 ± 1% | 0.13 ± 0.07 µg/mL | 0.26 ± 0.05 µg/mL | nontoxic
CCOc1cccc(-c2nnc(Cn3c(SCC)nc4ccccc43)o2)c1O [Compound 19, 2-Ethoxy-6-(5-((2-(ethylthio)-1H-benzo[d]imidazole-1-yl)methyl)-1,3,4-oxadiazol-2-yl)phenol] | 93.3 ± 1.5 µM | noncompetitive | 5.0 (μmol/min)^−^1 | 223.5 ± 0.96 µM |  |  |  | 
CCCCCCCc1nnc(Cn2c(SCC)nc3ccccc32)o1 [Compound 16, 2-((2-(Ethylthio)-1H-benzo[d]imidazole-1-yl)methyl)-5-heptyl-1,3,4-oxadiazole] | 18.3 ± 1.7 µM | noncompetitive | 5.0 (μmol/min)^−^1 | 41.9 ± 0.67 µM | 96.1 ± 2.5% | 0.12 ± 0.00 µg/mL | 0.22 ± 0.01 µg/mL | nontoxic
CCSc1nc2ccccc2n1Cc1nnc(-c2ccc(O)cc2)o1 [Compound 26, 4-(5-((2-(Ethylthio)-1H-benzo[d]imidazole-1-yl)methyl)-1,3,4-oxadiazol-2-yl)phenol] | 30.5 ± 1.9 µM | noncompetitive | 5.0 (μmol/min)^−^1 | 93.2 ± 0.96 µM |  |  |  | 
CCSc1nc2ccccc2n1Cc1nnc(-c2ccc(C)cc2)o1 [Compound 34, 2-((2-(Ethylthio)-1H-benzo[d]imidazole-1-yl)methyl)-5-(p-tolyl)-1,3,4-oxadiazole] | 135.2 ± 0.5 µM | noncompetitive | 5.0 (μmol/min)^−^1 | 377.4 ± 1.57 µM |  |  |  | 
CCSc1nc2ccccc2n1Cc1nnc(-c2ccccc2Cl)o1 [Compound 23, 2-(2-Chlorophenyl)-5-((2-(ethylthio)-1H-benzo[d]imidazole-1-yl)methyl)-1,3,4-oxadiazole] | 45.1 ± 0.9 µM | noncompetitive | 5.0 (μmol/min)^−^1 | 118 ± 1.41 µM |  |  |  | 
CCSc1nc2ccccc2n1Cc1nnc(-c2ccc(OC)cc2)o1 [Compound 20, 2-((2-(Ethylthio)-1H-benzo[d]imidazole-1-yl)methyl)-5-(4-methoxyphenyl)-1,3,4-oxadiazole] | 147 ± 1.9 µM | noncompetitive | 5.0 (μmol/min)^−^1 | 380.1 ± 0.87 µM |  |  |  | 
